This note sets out measurements from patent publication US6670339B1, “Use of sulfated oligosaccharides in lowering blood triglyceride levels” (The Australian National University, priority 1997, dated 2003).

For test [1], the system named is blood triglyceride levels. Briefly: Blood triglyceride levels in Fisher rats after 7 days of twice daily s.c. injection. In kind it is in vivo. Particulars: female Fisher rats, blood on day 8, control 1.43±0.13. The procedure: 1. Nine 10 week old female Fisher rats were treated with the sulfated mannopentaose phosphate or saline over a 7 day period as follows. On […] the rats were weighed and placed into three groups of three rats based on weight. On every subsequent morning their weights were recorded. Each morning beginning on day 1 at approximately 8.00 AM and evening at approximately 8.00 PM the rats were injected in the following manner. The control group received sterile normal saline solution 100 μl s.c. One treatment group received the sulfated mannopentaose phosphate at a dose of 10 mg/kg s.c. in an injection volume of 100 μl of sterile saline solution. Thus, each rat in this group received a total daily dose of 20 mg/kg. Animals in the second treatment group received the sulfated mannopentaose phosphate at a dose of 50 mg/kg s.c. in an injection volume of 100 μl of sterile saline solution. Thus, each rat in this group received a total daily dose of 100 mg/kg. This injection routine was repeated for a total of 7 days.
On the morning of day 8 of the experiment, the rats were anaesthetised and blood was taken for triglyceride analysis. Triglyceride levels were determined using a commercially available assay kit (Sigma, Triglyceride—GPO-Trinder). […]

The test system of test [2] is serum triglyceride levels. Briefly: Serum triglyceride levels in mice 2 hours after a single s.c. dose (dose response). In kind it is in vivo, CBA/h female mice. Particulars: single s.c. doses of 10 mg/kg and above (10, 20, 50, 100 mg/kg), 2 hours after injection. The procedure: FIG. 2. Effect of different single doses of sulfated mannopentaose phosphate (PI-88) (10-100 mg/kg) on serum triglyceride levels 2 hours following s.c. injection. Data presented as group means±SEM (n=4).
Thus, 20 CBA/h female mice 8-10 weeks old were weighed and placed into five groups, containing four mice each based on weight. The control group was injected with sterile normal saline solution 100 μl s.c. The respective treatment groups were injected with sulfated mannopentaose phosphate at doses of 10, 20, 50 or 100 mg/kg s.c. in a volume of 100 μl of sterile normal saline solution. Two hours following injection, mice were anaesthetised and blood was collected via cardiac puncture and allowed to clot and serum triglyceride levels were measured using a commercially available kit (Sigma, Triglyceride—GPO-Trinder).

Test [3] deals with serum triglyceride levels. Briefly: Time course of serum triglyceride levels in mice after a single s.c. dose. Particulars: single 50 mg/kg s.c. In kind it is in vivo, CBA/h female mice. The procedure:
FIG. 1. Time course of the effect of a single s.c. dose (50 mg/kg) of sulfated mannopentaose phosphate (PI-88) on serum triglyceride levels, as measured by the Sigma triglyceride assay. Data presented as group means±SEM (n=4).
Thus, 32 CBA/h female mice 8-10 weeks old were weighed and placed into eight groups, containing four mice each based on weight. The control group was injected with sterile normal saline solution 100 μl s.c. All the treatment groups were injected with sulfated mannopentaose at a dose of 50 mg/kg s.c. in a volume of 100 μl of sterile normal saline solution. At 0.5, 1, 2, 3, 6, 24 and 48 hours following injection mice were anaesthetised and blood was collected via cardiac puncture and allowed to clot and serum triglyceride levels were measured using a commercially available kit (Sigma, Triglyceride—GPO-Trinder).

In test [4] the test system is serum triglyceride levels. Briefly: Serum triglyceride lowering by glycosaminoglycans and sulfated oligosaccharides in mice. In kind it is in vivo, CBA/h female mice. Particulars: 50 mg/kg s.c., 2 hours after injection. The method, then: FIG. 3. Ability of different glycosaminoglycans and sulfated oligosaccharides to lower serum triglyceride levels in CBA mice. Compounds were injected s.c. at a dose of 50 mg/kg, blood samples taken 2 hours later and assayed for triglyceride content. Each histogram is the mean±SEM (n=3) for each treatment.
Mice (CBA/h female mice 8-10 weeks old) were injected s.c. with a range of glycosaminoglycans and sulfated oligosaccharides at a dose of 50 mg/kg and 2 hours later mice were anaesthetised, blood was collected via cardiac puncture and allowed to clot and serum triglyceride levels measured using a commercially available kit (Sigma, Triglyceride—GPO-Trinder). […] The only other compound with some activity was suramin, a sulfonated compound which has previously been used as an angiogenesis and heparanase inhibitor.

Regarding “sulfated mannopentaose phosphate [PI-88 (15 SO4/molecule)]”, the blood triglyceride levels turned out to be 0.3 ± 0.12 mmol/L in test [1] (20 mg/kg/day s.c. (10 mg/kg twice daily)) and 0.1 ± 0.0 mmol/L in test [1] (100 mg/kg/day s.c. (50 mg/kg twice daily)). For the same substance, in test [2], the “reduction in blood triglyceride levels, in words” value was “significant reduction”. Further, the “time to significant reduction in blood triglyceride levels” value in test [3] is at most 0.5 h. Besides, in test [3], the “time until which triglyceride levels continued to fall (maximum lowering)” value is 2 h. For the same substance, the “triglyceride levels versus controls, in words” value in test [3] (6 hours after injection) is recorded as “significantly lower than controls”; in test [3] (24 hour time point), “returning to normal”. Further, in test [4], the “effect on serum triglyceride levels, in words” value is recorded as “lowered serum triglyceride levels”.
